Laboratory results taken from US11180470B2, “Herbicidal pyrimidine compounds” (BASF SE, priority 2016, dated 2021).

What was measured:
AMARE = assay: greenhouse experiment, post-emergence treatment; type: in vivo, Amaranthus retroflexus; details: post-emergence method, application rate 2000 g/ha, scale from 0 to 100
Description: (§1) The culture containers used were plastic flowerpots containing loamy sand with approximately 3.0% of humus as the substrate. The seeds of the test plants were sown separately for each species.
(§2) For the post-emergence treatment, the test plants were first grown to a height of 3 to 15 cm, depending on the plant habit, and only then treated with the active ingredients which had been suspended or emulsified in water. For this purpose, the test plants were either sown directly and grown in the same containers, or they were first grown separately as seedlings and transplanted into the test containers a few days prior to treatment.
(§3) Depending on the species, the plants were kept at 10-25° C. or 20-35° C., respectively.
(§4) The test period extended over 2 to 4 weeks. During this time, the plants were tended, and their response to the individual treatments was evaluated.
(§5) Evaluation was carried out using a scale from 0 to 100. 100 means no emergence of the plants, or complete destruction of at least the aerial moieties, and 0 means no damage, or normal course of growth. A good herbicidal activity is given at values of at least 70 and a very good herbicidal activity is given at values of at least 85.
(§6) The plants used in the greenhouse experiments were of the following species: […]

AVEFA = assay: greenhouse experiment, post-emergence treatment; type: in vivo, Avena fatua; details: post-emergence method, application rate 2000 g/ha, scale from 0 to 100
Description: as §1, §2, §3, §4, §5, §6

ECHCG [1] = assay: greenhouse experiment, post-emergence treatment; type: in vivo, Echinocloa crus-galli; details: post-emergence method, application rate 2000 g/ha, scale from 0 to 100
Procedure: The seeds of the test plants were sown separately for each species. […] For this purpose, the test plants were either sown directly and grown in the same containers, or they were first grown separately as seedlings and transplanted into the test containers a few days prior to treatment. Depending on the species, the plants were kept at 10-25° C. or 20-35° C., respectively. The test period extended over 2 to 4 weeks. During this time, the plants were tended, and their response to the individual treatments was evaluated. Evaluation was carried out using a scale from 0 to 100. 100 means no emergence of the plants, or complete destruction of at least the aerial moieties, and 0 means no damage, or normal course of growth. A good herbicidal activity is given at values of at least 70 and a very good herbicidal activity is given at values of at least 85. The plants used in the greenhouse experiments were of the following species: [table]

APESV = assay: greenhouse experiment, pre-emergence treatment; type: in vivo, Apera spica-venti; details: pre-emergence method, application rate 2000 g/ha, scale from 0 to 100
Description: (§7) The seeds of the test plants were sown separately for each species. For the pre-emergence treatment, the active ingredients, which had been suspended or emulsified in water, were applied directly after sowing by means of finely distributing nozzles. The containers were irrigated gently to promote germination and growth and subsequently covered with transparent plastic hoods until the plants had rooted. This cover caused uniform germination of the test plants, unless this had been impaired by the active ingredients. Depending on the species, the plants were kept at 10-25° C. or 20-35° C., respectively. The test period extended over 2 to 4 weeks. During this time, the plants were tended, and their response to the individual treatments was evaluated. Evaluation was carried out using a scale from 0 to 100. 100 means no emergence of the plants, or complete destruction of at least the aerial moieties, and 0 means no damage, or normal course of growth. A good herbicidal activity is given at values of at least 70 and a very good herbicidal activity is given at values of at least 85. The plants used in the greenhouse experiments were of the following species: [table]

ECHCG [2] = assay: greenhouse experiment, pre-emergence treatment; type: in vivo, Echinocloa crus-galli; details: pre-emergence method, application rate 2000 g/ha, scale from 0 to 100
Description: as §7

ALOMY = assay: greenhouse experiment, post-emergence treatment; type: in vivo, Alopecurus myosuroides; details: post-emergence method, application rate 2000 g/ha, scale from 0 to 100
Description: as §1, §2, §3, §4, §5, §6

SETVI = assay: greenhouse experiment, post-emergence treatment; type: in vivo, Setaria viridis; details: post-emergence method, application rate 2000 g/ha, scale from 0 to 100
Description: as §1, §2, §3, §4, §5, §6

| SMILES | herbicidal activity against AMARE (AMARE) | herbicidal activity against AVEFA (AVEFA) | herbicidal activity against ECHCG (ECHCG [1]) | herbicidal activity against APESV (APESV) | herbicidal activity against ECHCG (ECHCG [2]) | herbicidal activity against ALOMY (ALOMY) | herbicidal activity against SETVI (SETVI) |
| --- | --- | --- | --- | --- | --- | --- | --- |
| COC(=O)c1nc(C2CC2)ncc1-c1cccnc1Br [Example 18] | very good (a very good herbicidal activity is given at values of at least 85) | very good (a very good herbicidal activity is given at values of at least 85) | very good (a very good herbicidal activity is given at values of at least 85) | very good (a very good herbicidal activity is given at values of at least 85) | very good (a very good herbicidal activity is given at values of at least 85) |  |  |
| O=C(O)c1nc(C2CC2)ncc1-c1ncc(F)cc1Br [Example 24] | very good (a very good herbicidal activity is given at values of at least 85) | very good (a very good herbicidal activity is given at values of at least 85) | very good (a very good herbicidal activity is given at values of at least 85) | very good (a very good herbicidal activity is given at values of at least 85) | very good (a very good herbicidal activity is given at values of at least 85) |  |  |
| COC(=O)c1nc(C2CC2)ncc1-c1ncccc1Br [Example 28] |  |  |  | very good (a very good herbicidal activity is given at values of at least 85) | very good (a very good herbicidal activity is given at values of at least 85) | very good (a very good herbicidal activity is given at values of at least 85) | good (A good herbicidal activity is given at values of at least 70) |
| COC(=O)c1nc(C2CC2)ncc1-c1cnccc1Br [Example 34] |  |  | very good (a very good herbicidal activity is given at values of at least 85) |  |  | very good (a very good herbicidal activity is given at values of at least 85) | very good (a very good herbicidal activity is given at values of at least 85) |
| O=C(O)c1nc(C2CC2)ncc1-c1ccncc1Br [Example 38] | very good (a very good herbicidal activity is given at values of at least 85) | very good (a very good herbicidal activity is given at values of at least 85) |  | very good (a very good herbicidal activity is given at values of at least 85) | very good (a very good herbicidal activity is given at values of at least 85) | very good (a very good herbicidal activity is given at values of at least 85) |  |
| COC(=O)c1nc(C2CC2)ncc1-c1ncc(F)cc1Cl [Example 41] |  | very good (a very good herbicidal activity is given at values of at least 85) |  | very good (a very good herbicidal activity is given at values of at least 85) | very good (a very good herbicidal activity is given at values of at least 85) | very good (a very good herbicidal activity is given at values of at least 85) | very good (a very good herbicidal activity is given at values of at least 85) |
| CCc1ncc(-c2cccnc2Br)c(C(=O)O)n1 [Example 48] |  |  |  |  |  |  | very good (a very good herbicidal activity is given at values of at least 85) |
| CCc1ncc(-c2ncccc2Br)c(C(=O)O)n1 [Example 49] |  |  |  |  | very good (a very good herbicidal activity is given at values of at least 85) |  | very good (a very good herbicidal activity is given at values of at least 85) |
| COC(=O)c1nc(OC)ncc1-c1ncc(F)cc1F [Example 53] |  |  |  |  |  |  | good (A good herbicidal activity is given at values of at least 70) |
